Assay [1] deals with melanoma TILs. In words: Cell counts of melanoma TILs expanded in pre-REP and REP with CPI-444. It is filed as cell-based, human. Particulars: pre-REP 11 days, melanoma tumor fragments pooled. How it is done: The expression of A2aR on TILs and the effect of an A2aR antagonist on TILs was evaluated by culturing melanoma tumor fragments or lung tumor fragments in both pre-REP and the REP phases either with or without the addition of CPI-444 (ciforadenant), an A2aR antagonist, which was obtained commercially from MedChemExpress, Inc., Monmouth Junction, N.J., USA. The experimental procedure is similar to that of Example 3 and Example 10, with the changes as described below.
Melanoma tumors and lung tumors were obtained from patients. The tumor samples were generally fragmented using sharp dissection into small pieces of about 3 mm×3 mm×3 mm. The TILs were cultured from these fragments using mechanical dissociation, using scalpel and forceps. Repeated cycles of mechanical dissociation and mixing were applied until only small tissue pieces are present. At the end of this process, the tumor fragments were placed into pre-REP culture. […]
After TIL harvesting, the TILs are phenotypically analyzed: (1) the total number of cells were counted with an automated cell counter; (2) Flow cytometry was used to determine the fraction of TILs that were CD4^+, CD8^+, within the subset of memory T-Cells, and to determine the presence/absence of A2aR and the expression level of A2aR. […]

In assay [2] the test system is melanoma TILs. Briefly: Flow cytometry of CD8+ and CD4+ subsets, melanoma TILs expanded with CPI-444. It is filed as cell-based, human. Particulars: melanoma TIL cultures treated with A2aR antagonist. The text has this: (§1) After TIL harvesting, the TILs are phenotypically analyzed: (1) the total number of cells were counted with an automated cell counter; (2) Flow cytometry was used to determine the fraction of TILs that were CD4^+, CD8^+, within the subset of memory T-Cells, and to determine the presence/absence of A2aR and the expression level of A2aR.
(§2) FIG. 43 illustrates the results of flow cytometry analysis of CD8^+ and CD4^+ subsets for melanoma TILs obtained after the addition of the A2AR antagonist to pre-REP and REP cultures under various conditions. FIG. 44 and FIG. 45 illustrates flow cytometry analysis of CD8^+ and CD4^+ subsets for lung TILs (first and second lung tumor, respectively) obtained after the addition of CPI-444 to pre-REP and REP cultures under various conditions.
A general note: In flow cytometry, cells or beads pass a laser one at a time.

A further assay concerns lung TILs. In words: Flow cytometry of CD8+ and CD4+ subsets, lung TILs expanded with CPI-444. In kind it is cell-based, human. The note with it: lung TIL cultures.
Source text: as §1, §2

Another assay has as its system peripheral blood B cells. Particulars: cynomolgus monkeys; doses from 0.001-100 mg/kg; two experiments; WO 2015/119923; cited from earlier work.

As to `Cc1ccc(-c2nc(N)nc3c2nnn3Cc2cccc(CO[C@H]3CCOC3)n2)o1` [CPI-444, 7-(5-methylfuran-2-yl)-3-[[6-[[(3S)-oxolan-3-yl]oxymethyl]pyridin-2-yl]methyl]triazolo[4,5-d]pyrimidin-5-amine], the “Cell Count at end or preREP Culture (Millions of Cells)” value in the assay on melanoma TILs [1] (IL-2 + 12 nM CPI-444/100,000 Cells) is on record as 8.7 Millions of Cells; in the assay on melanoma TILs [1] (IL-2 + 48 nM CPI-444/100,000 Cells), 12.8 Millions of Cells. For the same compound, the “CD8+ population” value with melanoma TILs [2] is given as “decrease”; in the assay on lung TILs (at the 12 nM, 48 nM and 32 μM concentrations), “increase”. For the same compound, in the assay with lung TILs (second tumor), the “CD8+ TIL populations, response to 8 μM versus 32 μM” value was “modulated differently”.

In the case of “PF-05082566: fully human immunoglobulin G2-lambda anti-4-1BB (CD137) agonist monoclonal antibody, Pfizer; SEQ ID NO:11 and 12”, the “peripheral blood B cell numbers” value in the assay with peripheral blood B cells is on record as “either unchanged or decreased”.
